Laboratory results as given in article PMC5469811, “Identification of GXXXXG motif in Chrysophsin-1 and its implication in the design of analogs with cell-selective antimicrobial and anti-endotoxin activities” (Scientific Reports, 2017).
In brackets after ≈: the same amount, converted by molar mass. Where two headings read alike, the source gives them in different places. Blank lines part the entries; values can stand above or below the molecule they belong to. Residues, ends and D or L forms follow the SMILES beside them.

Assays:
[1] = tested on: Staphylococcus aureus (ATCC 25923); test: microbe, parasite or virus in culture; assay type: cell-based; details: read-out: Minimum inhibitory concentration (MIC)
Description: (§1) Antibacterial assay against various Gram-positive and Gram-negative strains of bacteria was performed by the serial two-fold dilution method according to the previously reported procedure, [36]. The antibacterial assays were repeated thrice and the averages of these MIC values were reported.

[2] = tested on: Staphylococcus aureus (ATCC 29213); test: microbe, parasite or virus in culture; assay type: cell-based; details: read-out: Minimum inhibitory concentration (MIC)
Description: as §1

[3] = tested on: Staphylococcus aureus (ATCC 33592) Methicillin resistant Genatmicin resistant; test: microbe, parasite or virus in culture; assay type: cell-based; details: read-out: Minimum inhibitory concentration (MIC)
Description: as §1

[4] = tested on: Escherichia coli (ATCC 25922); test: microbe, parasite or virus in culture; assay type: cell-based; details: read-out: Minimum inhibitory concentration (MIC)
Description: as §1

[5] = tested on: Staphylococcus aureus (ATCC 700699 MRSA); test: microbe, parasite or virus in culture; assay type: cell-based; details: read-out: Minimum inhibitory concentration (MIC)
Description: as §1

[6] = tested on: Klebsiella pneumoniae (ATCC 27736); test: microbe, parasite or virus in culture; assay type: cell-based; details: read-out: Minimum inhibitory concentration (MIC)
Description: as §1

[7] = tested on: Staphylococcus aureus (ATCC 700698 MRSA); test: microbe, parasite or virus in culture; assay type: cell-based; details: read-out: Minimum inhibitory concentration (MIC)
Description: as §1

[8] = tested on: Escherichia coli (ATCC 9637); test: microbe, parasite or virus in culture; assay type: cell-based; details: read-out: Minimum inhibitory concentration (MIC)
Description: as §1

[9] = tested on: Pseudomonas aeruginosa (ATCC BAA-427); test: microbe, parasite or virus in culture; assay type: cell-based; details: read-out: Minimum inhibitory concentration (MIC)
Description: as §1

[10] = tested on: Bacillus subtilis (ATCC 6633); test: microbe, parasite or virus in culture; assay type: cell-based; details: read-out: Minimum inhibitory concentration (MIC)
Description: as §1

[11] = tested on: Staphylococcus aureus (BAA-44)MDR; test: microbe, parasite or virus in culture; assay type: cell-based; details: BAA44; Staphylococcus aureus (BAA-44) MDR; averages of three repeats; read-out: Minimum inhibitory concentration (MIC)
Description: as §1

E. coli ATCC 25922 [12] = test: Synergy with conventional antibiotics, checkerboard titration; assay type: cell-based, Escherichia coli
Description: The checkerboard titration method was followed to check the synergy of peptides with other antibiotics. First, 2-fold serial dilutions of the antibiotics and antimicrobial peptides were prepared. Subsequently, 50 μl each of different concentrations of antibiotics and of antimicrobial peptides was mixed and added into 100 μl of log phase bacteria culture in a 96-well plate. The plates were then incubated at 37 °C for 24 h. The fractional inhibitory concentration (FIC) index (FICI) was calculated as follows[39]: FICI=(MICofdrugAincombination)/(MICofdrugAalone)+(MICofdrugBincombination)/(MICofdrugB): FICI < 0.5 is considered to indicate synergy; 0.5 < FICI < 1.0 is considered additive; 1.0 < FICI < 4.0 is considered indifferent; and FICI > 4.0 is considered antagonism.

S. aureus (ATCC 25923) = assay type: cell-based, Staphylococcus aureus; details: ATCC 25923, 1 h
Description: (§2) E. coli ATCC25922 was grown to 10^6 CFU/ml in fresh MH broth with various divalent and monovalent salts at their physiological concentrations. Serial dilutions of chrysophsin-1 and its variants prepared with the same MH broth were added to the E. coli ATCC 25922 suspensions. The bacteria were incubated at 37 °C in a shaking incubator for 18 h and the MIC values of individual peptides against E. coli ATCC 25922 were determined. Thermal tolerance of Chrysophsin-1 and its variants was checked by incubating the peptides at 4 °C, 60 °C and 90 °C for 1 h prior to MIC determination. The antibacterial activity in presence of serum was carried out by adding a final concentration of 10% fetal bovine serum in the assay diluents containing 0.4% BSA, 0.02% glacial acetic acid. The subsequent steps in both the experiments were consistent with the MIC determination method.

Cryptococcus neoformans = test: microbe, parasite or virus in culture; assay type: cell-based; details: 72 h, read-out: Minimum inhibitory concentration (MIC)
Description: (§3) The anti- fungal activity of peptides was performed according to the standard micro broth dilution technique as per NCCLS guidelines. These plates were incubated in a moist chamber at 35 °C, and an absorbance at 492 nm was recorded on a VersaMax microplate reader after 48 h for C. albicans ATCC 10231 and C. parapsilosis ATCC 22019 and 72 h for C. neoformans.

[13] = tested on: Candida albicans (ATCC 10231); test: microbe, parasite or virus in culture; assay type: cell-based; details: read-out: Minimum inhibitory concentration (MIC)
Description: as §3

[14] = tested on: Candida parapsilosis (ATCC 22019); test: microbe, parasite or virus in culture; assay type: cell-based; details: read-out: Minimum inhibitory concentration (MIC)
Description: as §3

E. coli (ATCC 25922) = assay type: cell-based, Escherichia coli; details: ATCC 25922, 1 h
Description: as §2

E. coli ATCC 25922 [15] = assay type: cell-based, Escherichia coli; details: ATCC 25922, 18 h
Description: as §2

[16] = tested on: Sporothrix schenckii (Patient isolates); test: microbe, parasite or virus in culture; assay type: cell-based; details: read-out: Minimum inhibitory concentration (MIC)
[17] = ATCC25923, Staphylococcus aureus (ATCC 25923), averages of three repeats
[18] = ATCC29213, Staphylococcus aureus (ATCC 29213), averages of three repeats
[19] = ATCC33592, Staphylococcus aureus (ATCC 33592), methicillin and gentamicin resistant, averages of three repeats
[20] = ATCC25922, Escherichia coli (ATCC 25922), averages of three repeats
[21] = Staphylococcus aureus (ATCC 700699 MRSA), averages of three repeats
[22] = ATCC27736, Klebsiella pneumoniae (ATCC 27736), averages of three repeats
[23] = Staphylococcus aureus (ATCC 700698 MRSA), averages of three repeats
[24] = ATCC9637, Escherichia coli (ATCC 9637), averages of three repeats
[25] = ATCCBAA427, Pseudomonas aeruginosa (ATCC BAA-427), averages of three repeats
[26] = ATCC6633, Bacillus subtilis (ATCC 6633), averages of three repeats

- MIC [1, 17]: 0.67 µM (≈ 0.32 µg/mL)
- MIC [2, 18]: 1.35 µM (≈ 0.645 µg/mL)
- MIC [3, 19]: > 86.8 µM
- MIC [4, 20]: 2.5 µM (≈ 1.19 µg/mL)
- MIC [5, 21]: > 86.8 µM
- MIC [6, 22]: 1.35 µM (≈ 0.645 µg/mL)
- MIC [7, 23]: > 86.8 µM
- MIC [8, 24]: 5 µM (≈ 2.39 µg/mL)
- MIC [9, 25]: 1.35 µM (≈ 0.645 µg/mL)
- MIC [10, 26]: 1.2 µM (≈ 0.573 µg/mL)
- MIC [11]: > 86.8 µM
SMILES: CNC(C)C1CCC(N)C(OC2C(N)CC(N)C(OC3OCC(C)(O)C(NC)C3O)C2O)O1 (centres unmarked) [Gentamicin, reference compound]

- Antibacterial activity (MIC) after incubating peptide at 4 °C (S. aureus (ATCC 25923)): 3 µM
- Antibacterial activity (MIC) after incubating peptide at 60 °C (S. aureus (ATCC 25923)): 33 µM
- Antibacterial activity (MIC) after incubating peptide at 90 °C (S. aureus (ATCC 25923)): 33 µM
- MIC (Cryptococcus neoformans): 13.6 µM (≈ 39.9 µg/mL)
- MIC ([13]; ATCC 10231, 48 h): 13.6 µM (≈ 39.9 µg/mL)
- MIC ([14]; ATCC 22019, 48 h): 13.6 µM (≈ 39.9 µg/mL)
- Antibacterial activity (MIC) after incubating peptide at 4 °C (E. coli (ATCC 25922)): 3 µM
- Antibacterial activity (MIC) after incubating peptide at 60 °C (E. coli (ATCC 25922)): 8.3 µM
- Antibacterial activity (MIC) after incubating peptide at 90 °C (E. coli (ATCC 25922)): 17.2 µM
- Antibacterial activity (MIC) in the presence of 10% FBS (E. coli ATCC 25922 [15]): 17.2 µM
- Antibacterial activity (MIC) in the presence of FeCl3 (E. coli ATCC 25922 [15]): 4.1 µM
- Antibacterial activity (MIC) in the presence of KCl (E. coli ATCC 25922 [15]): 4.3 µM
- Antibacterial activity (MIC) in the presence of MgCl2 (E. coli ATCC 25922 [15]): 8.6 µM
- Antibacterial activity (MIC) in the presence of NH4Cl (E. coli ATCC 25922 [15]): 4.3 µM
- Antibacterial activity (MIC) in the presence of NaCl (E. coli ATCC 25922 [15]): 4.3 µM
- MIC ([16]; 48 h): 27.2 µM (≈ 79.7 µg/mL)
- MIC ([1]; ATCC 25923): 3 µM (≈ 8.79 µg/mL)
- MIC ([2]; ATCC 29213): 6.8 µM (≈ 19.9 µg/mL)
- MIC ([3]; ATCC 33592): 1.6 µM (≈ 4.69 µg/mL)
- MIC ([4]; ATCC 25922): 3 µM (≈ 8.79 µg/mL)
- MIC ([5]; ATCC 700699): 3 µM (≈ 8.79 µg/mL)
- MIC ([6]; ATCC 27736): 13.6 µM (≈ 39.9 µg/mL)
- MIC ([7]; ATCC 700698): 3 µM (≈ 8.79 µg/mL)
- MIC ([8]; ATCC 9637): 3 µM (≈ 8.79 µg/mL)
- MIC ([9]; ATCC BAA-427): 6.8 µM (≈ 19.9 µg/mL)
- MIC ([10]; ATCC 6633): 3 µM (≈ 8.79 µg/mL)
SMILES: CC[C@H](C)[C@H](NC(=O)[C@H](C)NC(=O)CNC(=O)[C@H](CCCCN)NC(=O)[C@@H](NC(=O)[C@H](CC(C)C)NC(=O)[C@H](Cc1c[nH]c2ccccc12)NC(=O)CNC(=O)[C@H](Cc1ccccc1)NC(=O)[C@@H](N)Cc1ccccc1)[C@@H](C)CC)C(=O)N[C@@H](Cc1c[nH]cn1)C(=O)N[C@@H](C)C(=O)NCC(=O)N[C@@H](CCCCN)C(=O)N[C@@H](C)C(=O)N[C@H](C(=O)N[C@@H](Cc1c[nH]cn1)C(=O)N1CCC[C@H]1C(=O)N[C@@H](CC(C)C)C(=O)N[C@H](C(=O)N[C@@H](Cc1c[nH]cn1)C(=O)N[C@@H](CCCNC(=N)N)C(=O)N[C@@H](CCCNC(=N)N)C(=O)N[C@@H](CCCNC(=N)N)C(=O)N[C@@H](Cc1c[nH]cn1)C(N)=O)[C@@H](C)CC)[C@@H](C)CC [Peptide G18P-Chr-1] (H-FFGWLIKGAIHAGKAIHPLIHRRRH-NH2)
- interaction of peptide with chloramphenicol (by FICI) (E. coli ATCC 25922 [12]): additivity

- MIC [1, 17]: 1.22 µM (≈ 0.39 µg/mL)
- MIC [2, 18]: 2.44 µM (≈ 0.779 µg/mL)
- MIC [3, 19]: 1.22 µM (≈ 0.39 µg/mL)
- MIC [4, 20]: 0.3 µM (≈ 0.0958 µg/mL)
- MIC [5, 21]: > 156 µM
- MIC [6, 22]: 0.15 µM (≈ 0.0479 µg/mL)
- MIC [7, 23]: > 156 µM
- MIC [8, 24]: 0.15 µM (≈ 0.0479 µg/mL)
- MIC [9, 25]: 1.22 µM (≈ 0.39 µg/mL)
- MIC [10, 26]: 1.2 µM (≈ 0.383 µg/mL)
- MIC [11]: 39.1 µM (≈ 12.5 µg/mL)
SMILES: CCn1cc(C(=O)O)c(=O)c2cc(F)c(N3CCNCC3)cc21 [Norfloxacin, reference compound]

- MIC (Cryptococcus neoformans; Cryptococcus neoformans, NCCLS micro broth dilution, 35 °C, absorbance 492 nm): 6.53 µM (≈ 2 µg/mL)
- MIC ([13]; ATCC10231, Candida albicans (ATCC 10231), NCCLS micro broth dilution, 35 °C, 48 h, absorbance 492 nm): 3.26 µM (≈ 0.998 µg/mL)
- MIC ([14]; ATCC22019, Candida parapsilosis (ATCC 22019), NCCLS micro broth dilution, 35 °C, 48 h, absorbance 492 nm): 6.53 µM (≈ 2 µg/mL)
- MIC ([16]; Sporothrix schenckii (patient isolates), NCCLS micro broth dilution, 35 °C): 6.53 µM (≈ 2 µg/mL)
SMILES: OC(Cn1cncn1)(Cn1cncn1)c1ccc(F)cc1F [Fluconazole, reference compound]
